Results as given in patent publication US5852033A, “Methods of treatment using lamellarin-class alkaloids” (Pharma Mar, s.a., priority 1995, dated 1998).
≈ marks a conversion by molar mass, not a printed value. Read-outs that look alike come from different tables or passages of the source.

Key:
P-388 = experiment: LAMELLARINS TOXICITY TO SENSITIVE TUMOR CELL LINE P-388 (MTT); format: cell-based; conditions: Mus musculus, P388, 72 h, read-out: ACTIVITY: IC50
Experimental: (§1) Sensitive and MDR cells were maintained, in logarithmic phase of growth, in Eagle's Minimum Essential Medium, with Earle's Balanced Salts, with non-essential amino acids, with 2.0 mM L-glutamine, without sodium bicarbonate (EMEM/neaa), supplemented with 5% Fetal Calf Serum (FCS), 10^-2 M sodium bicarbonate and 0.1 g/l penicillin G+0.1 g/l streptomycin sulfate.
(§2) In Vitro cell cytotoxicity was determined using the 3-[4,5-dimethylthiazol-2-yl]-2,5-dipheniltetrazolium bromide (MTT), from Sigma Ref:M-2128, for quantitative measurement of cell growth and viability. See, T. Mosmann, "Rapid Colorimetric Assay for Cellular Growth and Survival: Application to Proliferation and Cytotoxicity Assays," Journal of Immunological Methods, 65: 55-63 (1983).
(§3) The tumor cell lines employed have been: P-388 (ATCC CCL 46), suspension culture of a lymphoid neoplasm from a DBA/2 mouse and its corresponding MDR cell line P-388/SCHABEL; CHOB1 (ATCC CCL 16), monolayer culture of chinese hamster ovary and its corresponding MDR cell line CHOC5. See, Rauscher Ill, et al., "Characterization of Auromycin-Resistant Hamster Cell Mutants that Display a Multidrug Resistance Phenotype," Molecular Pharmacology, 38: 198-206 (1990).
(§4) This form of assay employs 96-well cell culture plates […]. Cells were seeded into wells at 1×10^3 cells per well in 100 μl aliquots of EMEM 5% FCS containing different concentrations of the corresponding lamellarins and other compounds (standards) to be tested. Two separate sets of cultures without drugs were seeded, one as control of growth to ensure that cells remained in exponential phase of growth, and another without cells as control of medium. All determinations were carried out in duplicate.
(§5) After three days of incubation at 37° C., 10% CO2 in a 98% humid atmosphere, 150 μg of MTT is added to each well in 50 μl aliquots of assay medium. Plates were incubated for an additional 4 hours and 100 μl aliquots of isopropanol were added to each well. The broad absorption spectrum for the isopropanol solution of this crystal is optimal at 570 nm. Optical density values were obtained with the help of a Dynatech microplate reader and the results of the assay were used to generate graphics from which IC50 was calculated; i.e., wherein the IC50 is the test concentration which produces 50% cell growth inhibition.

CHOC5 (MDR) = experiment: LAMELLARINS TOXICITY TO RESISTANT (MDR) TUMOR CELL LINE CHOC5 (MTT); format: cell-based, chinese hamster; conditions: Cricetulus griseus, 72 h, read-out: ACTIVITY: IC50
Experimental: as §1, §2, §3, §4, §5

P-388/SCHABEL (MDR) = experiment: LAMELLARINS TOXICITY TO RESISTANT (MDR) TUMOR CELL LINE P-388/SCHABEL (MTT); format: cell-based; conditions: Mus musculus, P388, 72 h, read-out: ACTIVITY: IC50
Experimental: as §1, §2, §3, §4, §5

CHOB1 = experiment: LAMELLARINS TOXICITY TO SENSITIVE TUMOR CELL LINE CHOB1 (MTT); format: cell-based, chinese hamster; conditions: Cricetulus griseus, 72 h, read-out: ACTIVITY: IC50
Experimental: as §1, §2, §3, §4, §5

A549 = experiment: Lamellarin in vitro activity vs. tumor cell lines, A549; conditions: for IC50: Homo sapiens; for in vitro antitumor activities: compared with lamellarins I, K and L, particularly A549 cells
P388 = experiment: Lamellarin in vitro activity vs. tumor cell lines, P388; conditions: Mus musculus
MLR = experiment: Immunomodulatory activity (LcV:MLR); format: cell-based; conditions: in words
HT-29 = experiment: Lamellarin in vitro activity vs. tumor cell lines, HT-29; format: cell-based; conditions: Homo sapiens; HT-29, Table IV
MEL-28 = experiment: Lamellarin in vitro activity vs. tumor cell lines, MEL-28; format: cell-based; conditions: Homo sapiens, SK-MEL-28; MEL-28, Table IV
[1] = test system: P388 Lymphocytic Leukemia; experiment: In vivo anti-tumor activity vs P388 lymphocytic leukemia; parameters: species or system mouse; conditions: total 75.000 mg/kg, QD 1-5, ip
[2] = P-388, sensitive, MTT, three days
[3] = P-388/SCHABEL (MDR), MTT, three days
[4] = CHOB1, sensitive, MTT, three days
[5] = A549, read-out: cytotoxicity IC50
[6] = P388, read-out: cytotoxicity IC50

SMILES | IC50 (P-388; [2]) | IC50 (CHOC5 (MDR); CHOC5 (MDR), MTT, three days) | IC50 (P-388/SCHABEL (MDR); [3]) | IC50 (CHOB1; [4]) | IC50 (A549; A549) | IC50 (P388; P388) | IC50 (HT-29) | further results
COc1ccc(-c2c3n(c4c(=O)oc5cc(OC(C)=O)c(OC)cc5c24)CCc2c-3cc(OC)c(OC)c2OC)cc1OC [Lamellarin I-acetate] | 5.5 µg/mL (≈ 9.14 µM) | 5 µg/mL (≈ 8.31 µM) | 5.5 µg/mL (≈ 9.14 µM) | 2.5 µg/mL (≈ 4.16 µM) |  |  |  | 
COc1cc(-c2c3n(c4c(=O)oc5cc(OC(C)=O)c(OC)cc5c24)CCc2c-3cc(OC)c(OC)c2OC(C)=O)ccc1OC(C)=O [Lamellarin K-triacetate] | 0.06 µg/mL (≈ 0.0912 µM) | 0.1 µg/mL (≈ 0.152 µM) | 0.1 µg/mL (≈ 0.152 µM) | 0.1 µg/mL (≈ 0.152 µM) |  |  |  | 
COc1cc(-c2c3c4cc(OC)c(OC(C)=O)cc4oc(=O)c3n3ccc4cc(OC(C)=O)c(OC)cc4c23)ccc1OC(C)=O [Lamellarin D-triacetate] | 0.07 µg/mL (≈ 0.112 µM) | 0.04 µg/mL (≈ 0.0639 µM) | 0.09 µg/mL (≈ 0.144 µM) | 0.03 µg/mL (≈ 0.048 µM) |  |  |  | 
COc1ccc(-c2c3n(c4c(=O)oc5cc(O)c(OC)cc5c24)CCc2cc(O)c(OC)cc2-3)cc1O [Lamellarin L] | 0.6 µg/mL (≈ 1.2 µM) | 0.6 µg/mL (≈ 1.2 µM) | 0.7 µg/mL (≈ 1.4 µM) | 0.4 µg/mL (≈ 0.798 µM) | 0.25 µg/mL (≈ 0.499 µM) | 0.25 µg/mL (≈ 0.499 µM) | 2 µg/mL (≈ 3.99 µM) | IC50 (A549; [5]): ~0.25 µg/mL (≈ 0.499 µM); IC50 (P388; [6]): ~0.25 µg/mL (≈ 0.499 µM); immunomodulatory activity (MLR): moderate immunomodulatory activity
COc1ccc(-c2c3c4cc(OC)c(OC(C)=O)cc4oc(=O)c3n3ccc4cc(OC(C)=O)c(OC)cc4c23)cc1OC(C)=O [Lamellarin N-triacetate] | 0.09 µg/mL (≈ 0.144 µM) | 0.1 µg/mL (≈ 0.16 µM) | 0.2 µg/mL (≈ 0.32 µM) | 0.06 µg/mL (≈ 0.0959 µM) | 0.012 µg/mL (≈ 0.0192 µM) | 0.1 µg/mL (≈ 0.16 µM) | 5 µg/mL (≈ 7.99 µM) | in vitro antitumor activities (A549): significantly better, particularly against A549 cells, than the lamellarins I, K and L; IC50 (MEL-28): 5 µg/mL (≈ 7.99 µM)
COc1cc(-c2c3n(c4c(=O)oc5cc(O)c(OC)cc5c24)CCc2c-3cc(OC)c(OC)c2O)ccc1O [Lamellarin K] | 0.1 µg/mL (≈ 0.188 µM) | 0.4 µg/mL (≈ 0.753 µM) | 0.1 µg/mL (≈ 0.188 µM) | 0.1 µg/mL (≈ 0.188 µM) | 0.25 µg/mL (≈ 0.47 µM) | 0.25 µg/mL (≈ 0.47 µM) | 1 µg/mL (≈ 1.88 µM) | IC50 (A549; [5]): ~0.25 µg/mL (≈ 0.47 µM); IC50 (P388; [6]): ~0.25 µg/mL (≈ 0.47 µM); immunomodulatory activity (MLR): moderate immunomodulatory activity; % T/C [1]: > 135.0%; Body Weight Change Day 5 [1]: 1.2 gm; Body Weight Day 5 [1]: 20.7 ± 0.5 gm; Mean Survival Time [1]: 28.3 ± 5.9; Body Weight Day 0 ([1]; baseline): 19.5 ± 0.5 gm
COc1cc(-c2c3c4cc(OC)c(O)cc4oc(=O)c3n3ccc4c(O)c(OC)c(OC)cc4c23)ccc1O [Lamellarin M] |  |  |  |  | 0.025 µg/mL (≈ 0.0472 µM) | 0.05 µg/mL (≈ 0.0944 µM) | 0.5 µg/mL (≈ 0.944 µM) | IC50 (P-388): 0.08 µg/mL (≈ 0.151 µM); in vitro antitumor activities (A549): significantly better, particularly against A549 cells, than the lamellarins I, K and L; IC50 (CHOC5 (MDR)): 0.09 µg/mL (≈ 0.17 µM); IC50 (P-388/SCHABEL (MDR)): 0.09 µg/mL (≈ 0.17 µM); IC50 (MEL-28): 0.5 µg/mL (≈ 0.944 µM); IC50 (CHOB1): 0.04 µg/mL (≈ 0.0755 µM)
C/C=C/C[C@@H](C)C(=O)[C@H]1C(=O)N[C@@H](C(C)C)C(=O)N(C)CC(=O)N(C)[C@@H](CC(C)C)C(=O)N[C@@H](C(C)C)C(=O)N(C)[C@@H](CC(C)C)C(=O)N[C@@H](C)C(=O)N[C@H](C)C(=O)N(C)[C@@H](CC(C)C)C(=O)N(C)[C@@H](CC(C)C)C(=O)N(C)[C@@H](C(C)C)C(=O)N1C [PSC833, reference compound] | 0.02 µg/mL (≈ 0.0165 µM) | 0.1 µg/mL (≈ 0.0823 µM) | 0.05 µg/mL (≈ 0.0412 µM) | 0.04 µg/mL (≈ 0.0329 µM) |  |  |  | 
COc1ccc(-c2c3n(c4c(=O)oc5cc(OC(C)=O)c(OC)cc5c24)CCc2cc(OC(C)=O)c(OC)cc2-3)cc1OC(C)=O [Lamellarin L-triacetate] | 1.5 µg/mL (≈ 2.39 µM) | 1.5 µg/mL (≈ 2.39 µM) | 1.5 µg/mL (≈ 2.39 µM) | 1.5 µg/mL (≈ 2.39 µM) |  |  |  | 
